Assay results taken from ChEMBL document CHEMBL2176976, “Ethylenediamine diacetate (EDDA) mediated synthesis of aurones under ultrasound: their evaluation as inhibitors of SIRT1” (Bioorg Med Chem Lett, 2012).

Legend:
MCF7 = assay: Cytotoxicity against human MCF7 cells assessed as growth inhibition at 10 uM after 24 hrs by MTT assay (reference value: 0.15 %); type: functional; settings: MCF7, 24 h, read-out: GI
MDA-MB-231 = assay: Cytotoxicity against human MDA-MB-231 cells assessed as growth inhibition at 10 uM after 24 hrs by MTT assay (reference value: 0.23 %); type: functional; settings: MDA-MB-231, 24 h, read-out: GI
[1] = biological target: T1, NAD-dependent protein deacetylase sirtuin-1 (Homo sapiens) (UniProt Q96EB6); assay: Inhibition of full length recombinant human SIRT1 expressed in Escherichia coli BL21 (DE3) PLysS using Fluor-de-Lys as substrate at 10 uM by fluorimetric assay
T1 sequence (whole entry): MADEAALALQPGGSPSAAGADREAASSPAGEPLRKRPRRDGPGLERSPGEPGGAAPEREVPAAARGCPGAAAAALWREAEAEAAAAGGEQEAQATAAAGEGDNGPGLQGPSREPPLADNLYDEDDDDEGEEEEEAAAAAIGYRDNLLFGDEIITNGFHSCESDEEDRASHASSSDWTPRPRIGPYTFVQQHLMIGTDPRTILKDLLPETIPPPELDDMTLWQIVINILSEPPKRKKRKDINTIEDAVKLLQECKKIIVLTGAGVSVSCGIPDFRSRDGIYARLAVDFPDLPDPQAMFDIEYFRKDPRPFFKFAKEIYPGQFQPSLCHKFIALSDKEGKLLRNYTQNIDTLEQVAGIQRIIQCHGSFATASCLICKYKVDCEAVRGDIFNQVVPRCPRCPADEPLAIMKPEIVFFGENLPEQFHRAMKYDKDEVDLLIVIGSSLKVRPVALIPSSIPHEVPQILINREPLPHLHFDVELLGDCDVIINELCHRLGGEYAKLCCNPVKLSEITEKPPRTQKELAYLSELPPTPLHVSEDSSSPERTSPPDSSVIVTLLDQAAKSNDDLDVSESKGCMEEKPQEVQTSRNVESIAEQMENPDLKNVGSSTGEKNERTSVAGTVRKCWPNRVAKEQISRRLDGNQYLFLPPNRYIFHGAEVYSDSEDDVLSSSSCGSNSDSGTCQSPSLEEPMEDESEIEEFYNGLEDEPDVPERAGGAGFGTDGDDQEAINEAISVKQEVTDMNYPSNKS

[2] = biological target: T2, NAD-dependent protein deacetylase sirtuin-2 (Homo sapiens, UniProt Q8IXJ6); assay: Inhibition of human SIRT2
T2 sequence (Q8IXJ6 whole entry): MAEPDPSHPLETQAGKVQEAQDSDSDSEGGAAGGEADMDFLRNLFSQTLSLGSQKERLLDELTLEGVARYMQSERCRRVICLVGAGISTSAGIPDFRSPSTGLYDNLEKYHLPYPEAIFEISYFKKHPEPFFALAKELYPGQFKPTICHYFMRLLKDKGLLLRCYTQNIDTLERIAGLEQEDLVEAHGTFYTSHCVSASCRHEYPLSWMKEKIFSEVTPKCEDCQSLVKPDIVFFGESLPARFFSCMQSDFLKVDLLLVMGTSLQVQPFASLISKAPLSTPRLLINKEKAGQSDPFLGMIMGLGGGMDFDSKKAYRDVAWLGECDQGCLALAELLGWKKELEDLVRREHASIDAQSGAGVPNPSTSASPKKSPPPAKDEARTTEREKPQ

| SMILES | inhibition of growth at 10 µM (MCF7) [%] | inhibition of growth at 10 µM (MDA-MB-231) [%] | inhibition [1] [%] | IC50 [2] [µM] |
| --- | --- | --- | --- | --- |
| O=C1/C(=C/c2ccc(Br)cc2)Oc2ccccc21 | 34.5 | 30.8 | 71 | – |
| O=C1NC(=S)NC(=O)C1=Cc1cccc2ccccc12 | – | – | – | 10 |
| COc1ccc(/C=C2\Oc3ccccc3C2=O)cc1 [4'-METHOXY-AURONE] | 29.6 | 18.1 | 32.5 | – |
| O=C1/C(=C/c2ccc(F)cc2)Oc2ccccc21 | 20.1 | 16.5 | 50.5 | – |
| Cc1ccc(C(=O)Nc2ccc(S(=O)(=O)O)c3cc(S(=O)(=O)O)cc(S(=O)(=O)O)c23)cc1NC(=O)c1cccc(NC(=O)Nc2cccc(C(=O)Nc3cc(C(=O)Nc4ccc(S(=O)(=O)O)c5cc(S(=O)(=O)O)cc(S(=O)(=O)O)c45)ccc3C)c2)c1 [SURAMIN] | 32 | 26 | – | – |
